Tests used:
[1] = test system: Klebsiella oxytoca (KOX) isolates; experiment: MIC of compounds alone and combined with antibacterials, broth microdilution (CLSI); format: cell-based
Procedure, shortened: (§1)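 Broth microdilution in cation-adjusted Mueller-Hinton broth, inoculum 5.10^5 CFU/mL, 16-20 h at 35° C in ambient air, on genotyped isolates. Compound MIC, alone or with an antibacterial, taken visually as lowest concentration preventing growth; antibacterial MIC determined at each compound concentration.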

[2] = test system: Serratia marcescens (SMA) isolates; experiment: as above; format: cell-based
Procedure, shortened: as §1

C=CC1=C(C(=O)O)N2C(=O)[C@@H](NC(=O)/C(=N\OCC(=O)O)c3csc(N)n3)[C@H]2SC1 [FIX, Cefixime]
32 µg/mL: MIC ATB in combination ([2]; SMA UFR134, CLA @ 4 μg/mL) | MIC ATB in combination ([2]; SMA UFR135, CLA @ 4 μg/mL)
2 µg/mL: MIC ATB in combination ([1]; KOX UFR21, AF2 @ 8 μg/mL) | MIC ATB in combination ([2]; SMA UFR135, AF2 @ 8 μg/mL) | MIC ATB in combination ([2]; SMA UFR135, AF3 @ 8 μg/mL) | MIC ATB in combination ([2]; SMA UFR139, CLA @ 4 μg/mL) | MIC ATB in combination ([2]; SMA UFR142, CLA @ 4 μg/mL) | MIC ATB in combination ([2]; SMA UFR239, CLA @ 4 μg/mL) | MIC ([2]; strain SMA UFR141, genotype OXA-48) | MIC ([2]; strain SMA UFR142, genotype OXA-48)
>128 µg/mL: MIC ([1]; strain KOX UFR21, genotype TEM-1, CTX-M-15, OXA-48) | MIC ([1]; strain KOX UFR224, genotype CTX-M-15, OXA-48) | MIC ATB in combination ([2]; SMA UFR136, CLA @ 4 μg/mL) | MIC ([2]; strain SMA UFR134, genotype TEM-1, BES-1) | MIC ([2]; strain SMA UFR136, genotype TEM-1, SHV-12, KPC-2) | MIC ([2]; strain SMA UFR140, genotype IMP-1) | MIC ATB in combination ([2]; strain SMA UFR140, with AF2 @ 8 μg/mL) | MIC ATB in combination ([2]; strain SMA UFR140, with AF3 @ 8 μg/mL) | MIC ATB in combination ([2]; strain SMA UFR140, with CLA @ 4 μg/mL)
512 µg/mL: MIC ([2]; strain SMA UFR143, compound alone) | MIC ([2]; strain SMA UFR143, genotype CTX-M-15, OXA-1, OXA-48)
<=0.125 μg/mL: MIC ([1]; strain KOX UFR223, genotype SHV-11, OXA-48)
64 µg/mL: MIC ATB in combination ([2]; SMA UFR143, CLA @ 4 μg/mL) | MIC ([2]; strain SMA UFR135, genotype TEM-1, KPC-2)
0.5 µg/mL: MIC ATB in combination ([2]; SMA UFR30, AF2 @ 8 μg/mL) | MIC ATB in combination ([2]; SMA UFR134, AF2 @ 8 μg/mL) | MIC ATB in combination ([2]; SMA UFR138, CLA @ 4 μg/mL) | MIC ATB in combination ([2]; SMA UFR141, AF3 @ 8 μg/mL) | MIC ATB in combination ([2]; SMA UFR141, CLA @ 4 μg/mL) | MIC ATB in combination ([2]; SMA UFR142, AF2 @ 8 μg/mL) | MIC ([2]; strain SMA UFR137, genotype SME-1) | MIC ([2]; strain SMA UFR138, genotype SME-1)
<0.25 µg/mL: MIC ATB in combination ([1]; KOX UFR223, AF2 @ 8 μg/mL) | MIC ATB in combination ([1]; KOX UFR223, AF3 @ 8 μg/mL) | MIC ATB in combination ([1]; KOX UFR224, AF2 @ 8 μg/mL) | MIC ATB in combination ([1]; KOX UFR224, AF3 @ 8 μg/mL)
4 µg/mL: MIC ATB in combination ([1]; KOX UFR21, AF3 @ 8 μg/mL) | MIC ATB in combination ([1]; KOX UFR173, CLA @ 4 μg/mL) | MIC ATB in combination ([2]; SMA UFR136, AF2 @ 8 μg/mL) | MIC ATB in combination ([2]; SMA UFR136, AF3 @ 8 μg/mL)
1 µg/mL: MIC ATB in combination ([2]; SMA UFR30, CLA @ 4 μg/mL) | MIC ATB in combination ([2]; SMA UFR137, CLA @ 4 μg/mL) | MIC ATB in combination ([2]; SMA UFR139, AF2 @ 8 μg/mL) | MIC ATB in combination ([2]; SMA UFR142, AF3 @ 8 μg/mL) | MIC ([2]; strain SMA UFR30, genotype OXA-405) | MIC ([2]; strain SMA UFR139, genotype SME-2)
8 µg/mL: MIC ATB in combination ([1]; KOX UFR224, CLA @ 4 μg/mL)
16 µg/mL: MIC ([1]; strain KOX UFR173, genotype OXY2-2)
0.25 µg/mL: MIC ATB in combination ([2]; SMA UFR239, AF2 @ 8 μg/mL)
<=0.25 μg/mL: MIC ATB in combination ([1]; KOX UFR173, AF2 @ 8 μg/mL) | MIC ATB in combination ([1]; KOX UFR173, AF3 @ 8 μg/mL) | MIC ATB in combination ([1]; KOX UFR223, CLA @ 4 μg/mL) | MIC ATB in combination ([2]; SMA UFR30, AF3 @ 8 μg/mL) | MIC ATB in combination ([2]; SMA UFR134, AF3 @ 8 μg/mL) | MIC ATB in combination ([2]; SMA UFR137, AF2 @ 8 μg/mL) | MIC ATB in combination ([2]; SMA UFR137, AF3 @ 8 μg/mL) | MIC ATB in combination ([2]; SMA UFR138, AF2 @ 8 μg/mL) | MIC ATB in combination ([2]; SMA UFR138, AF3 @ 8 μg/mL) | MIC ATB in combination ([2]; SMA UFR139, AF3 @ 8 μg/mL) | MIC ATB in combination ([2]; SMA UFR141, AF2 @ 8 μg/mL) | MIC ATB in combination ([2]; SMA UFR143, AF2 @ 8 μg/mL) | MIC ATB in combination ([2]; SMA UFR143, AF3 @ 8 μg/mL) | MIC ATB in combination ([2]; SMA UFR239, AF3 @ 8 μg/mL)

— patent US20200017495A1, “NOVEL HETEROCYCLIC COMPOUNDS AND THEIR USE IN PREVENTING OR TREATING BACTERIAL INFECTIONS” (priority 2017, published 2020)
